“Also recorded” adds a separate entry of the source.
Assays:
[1] = target: T1, P-gp-catalyzed transport of calcein AM in DU145TXR cells (Homo sapiens, UniProt P08183); experiment: Calcein AM accumulation assay; assay type: cell-based; conditions: after 6-hour pre-incubation, compared to parental 29
T1 construct: DU145 human prostate cancer cells^52 as well as the multidrug resistant sub-line, DU145TXR; endogenous in cells; host or cells: DU145TXR (paclitaxel-selected sub-line of human DU145 prostate cancer cells)
T1 sequence (P08183 whole entry): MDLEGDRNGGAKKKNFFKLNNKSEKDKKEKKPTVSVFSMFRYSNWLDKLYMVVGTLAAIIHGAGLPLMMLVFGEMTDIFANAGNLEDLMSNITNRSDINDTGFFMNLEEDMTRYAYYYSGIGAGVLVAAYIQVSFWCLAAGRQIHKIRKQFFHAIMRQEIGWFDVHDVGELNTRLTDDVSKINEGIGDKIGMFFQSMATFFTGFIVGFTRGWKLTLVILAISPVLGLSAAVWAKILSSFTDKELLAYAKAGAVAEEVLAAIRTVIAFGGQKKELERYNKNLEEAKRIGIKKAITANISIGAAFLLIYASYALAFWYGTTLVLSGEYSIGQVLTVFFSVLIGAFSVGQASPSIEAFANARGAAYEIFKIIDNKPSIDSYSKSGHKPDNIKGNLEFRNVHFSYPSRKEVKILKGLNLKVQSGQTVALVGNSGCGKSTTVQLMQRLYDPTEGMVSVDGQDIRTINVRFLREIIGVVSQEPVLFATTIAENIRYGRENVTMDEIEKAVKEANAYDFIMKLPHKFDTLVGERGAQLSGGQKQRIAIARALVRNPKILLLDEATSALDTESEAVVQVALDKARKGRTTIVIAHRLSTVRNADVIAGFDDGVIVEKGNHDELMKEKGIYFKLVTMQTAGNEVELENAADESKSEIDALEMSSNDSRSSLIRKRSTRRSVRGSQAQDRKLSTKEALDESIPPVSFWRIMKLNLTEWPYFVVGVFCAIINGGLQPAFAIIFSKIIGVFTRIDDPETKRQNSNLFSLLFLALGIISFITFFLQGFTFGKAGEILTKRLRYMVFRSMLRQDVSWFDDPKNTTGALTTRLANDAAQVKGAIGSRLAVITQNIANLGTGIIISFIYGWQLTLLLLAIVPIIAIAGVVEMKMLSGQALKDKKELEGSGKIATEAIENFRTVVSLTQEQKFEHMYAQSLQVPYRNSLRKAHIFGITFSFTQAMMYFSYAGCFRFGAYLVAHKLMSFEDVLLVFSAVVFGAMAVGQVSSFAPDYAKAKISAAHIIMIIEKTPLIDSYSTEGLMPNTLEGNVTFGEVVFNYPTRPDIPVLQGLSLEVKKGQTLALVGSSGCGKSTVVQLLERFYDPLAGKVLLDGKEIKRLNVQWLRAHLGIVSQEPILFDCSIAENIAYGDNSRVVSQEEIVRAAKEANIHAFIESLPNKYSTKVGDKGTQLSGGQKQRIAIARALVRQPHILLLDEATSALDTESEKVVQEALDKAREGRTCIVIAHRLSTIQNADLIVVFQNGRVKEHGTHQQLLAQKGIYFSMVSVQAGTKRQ
Description: Accumulation and cellular retention of calcein AM in P-gp overexpressing prostate cancer cells upon incubation with Group 1 SMU-29 variants. Calcein AM accumulation assays have been used by us previously to evaluate P-gp-substrate accumulation in real time in the presence or absence of P-gp inhibitors^28. For these assays, P-gp overexpressing DU145TXR cells were incubated with the respective inhibitors in the presence of the P-gp substrate, calcein AM. Inhibition of P-gp leads to cellular accumulation of calcein AM and to cleavage of its acetoxymethyl ester groups, resulting in the generation of the highly fluorescent compound, calcein. The anionic calcein is not a substrate of P-gp and remains in the cells. In these assays, the relative fluorescence of cellular calcein was measured over time and the results of these assays are shown in FIG. 13A. […]
Calcein AM assay. To assess inhibition of P-gp-catalyzed transport of the P-gp pump substrate, calcein AM, DU145TXR cells were seeded in 96 wells plates and allowed to grow in complete medium until confluency was reached. Medium was removed, and cells were treated […] P-gp inhibitory compounds and 1 μg/mL calcein AM (Life Technologies, OR) and diluted into phenol red free RPMI 1640 media. To study the effect of pre-incubation of compounds, cells were treated with just P-gp inhibitory compounds and incubated at 37° C. for six hours before adding calcein AM. Fluorescence excitation at 485 nm with a 20 nm gate and at emission at 535 nm with a 20 nm gate was measured using a BioTek Cytation 5 imaging multi-mode reader (Bio-Tek, Winooski, Vt.) over 60 minutes in 20 minute intervals. DMSO was used as vehicle. Results were plotted as the mean with standard deviation (SD) of six replicates per concentration and are representative of at least two independent experiments.

[2] = target: T2, cysteineless mouse P-glycoprotein (Mus musculus, UniProt P21447, C1070A/C1121A/C1223A/C133A/C427A/C638A/C669A/C713A/C952A); experiment: SL-ATP (spin-labeled ATP analog) binding titration by ESR; conditions: for Maximum ATP binding: in the presence of the compound, ± standard deviation
T2 construct: made in house; host or cells: Pichia pastoris
T2 sequence (P21447 whole entry C133A/C427A/C638A/C669A/C713A/C952A/C1070A/C1121A/C1223A): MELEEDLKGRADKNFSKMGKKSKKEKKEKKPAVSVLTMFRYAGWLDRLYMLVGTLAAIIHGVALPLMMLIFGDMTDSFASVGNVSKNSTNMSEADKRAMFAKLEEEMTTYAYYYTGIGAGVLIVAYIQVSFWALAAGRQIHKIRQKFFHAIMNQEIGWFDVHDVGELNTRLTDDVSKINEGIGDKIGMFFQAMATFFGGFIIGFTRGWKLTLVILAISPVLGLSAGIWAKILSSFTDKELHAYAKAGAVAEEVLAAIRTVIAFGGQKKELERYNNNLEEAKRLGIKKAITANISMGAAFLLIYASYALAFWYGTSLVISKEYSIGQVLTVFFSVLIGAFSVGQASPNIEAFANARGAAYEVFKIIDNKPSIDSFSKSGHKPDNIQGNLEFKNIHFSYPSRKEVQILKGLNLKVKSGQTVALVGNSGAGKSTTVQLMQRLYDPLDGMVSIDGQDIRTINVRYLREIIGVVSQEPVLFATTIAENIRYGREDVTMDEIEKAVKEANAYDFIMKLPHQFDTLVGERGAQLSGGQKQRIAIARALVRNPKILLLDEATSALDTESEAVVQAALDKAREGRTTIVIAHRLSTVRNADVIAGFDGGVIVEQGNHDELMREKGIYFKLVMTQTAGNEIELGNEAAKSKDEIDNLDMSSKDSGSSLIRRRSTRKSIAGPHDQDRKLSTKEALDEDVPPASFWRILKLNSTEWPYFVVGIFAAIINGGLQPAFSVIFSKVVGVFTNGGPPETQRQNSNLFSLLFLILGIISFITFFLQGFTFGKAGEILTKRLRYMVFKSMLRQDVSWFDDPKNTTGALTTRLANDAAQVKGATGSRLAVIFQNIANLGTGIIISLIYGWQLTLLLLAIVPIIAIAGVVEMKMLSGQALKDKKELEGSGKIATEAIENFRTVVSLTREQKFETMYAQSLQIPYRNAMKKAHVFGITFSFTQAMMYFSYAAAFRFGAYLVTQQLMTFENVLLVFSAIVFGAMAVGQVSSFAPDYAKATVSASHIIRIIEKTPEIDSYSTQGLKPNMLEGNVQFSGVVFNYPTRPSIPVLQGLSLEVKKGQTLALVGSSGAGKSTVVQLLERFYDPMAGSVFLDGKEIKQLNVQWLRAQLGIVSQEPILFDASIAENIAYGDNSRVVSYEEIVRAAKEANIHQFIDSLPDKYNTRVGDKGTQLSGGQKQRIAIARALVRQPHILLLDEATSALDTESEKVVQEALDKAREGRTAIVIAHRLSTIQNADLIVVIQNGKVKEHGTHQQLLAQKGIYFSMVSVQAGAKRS
Description: Effects of 29 variants on binding of an ATP-analog to purified P-glycoprotein. ATP binding in the presence of the 29 variants was assessed in titration assays using a spin-labeled analog of ATP, 2′,3′-SL-ATP (2′,3′-(2,2,5,5,-tetramethyl-3-pyrroline-1-oxyl-3-carboxylic acid ester) ATP; (2′,3′ indicates a rapid equilibrium of the ester bond between the C2′ and C3′ of the ribose moiety))^48-50, and electron spin resonance spectroscopy as described in^26. Due to the lower stability of the human P-glycoprotein in the extended times needed for these experiments, the cysteineless mouse protein was used here. The goal was to assess whether binding of the 29 variants to P-gp affected nucleotide binding to the protein.
ESR Measurements. ESR measurements were as described in^26. The amount of protein-bound spin-labeled (SL) adenine nucleotide was determined as the difference between the known total concentration of SL-ATP (2′,3′-(2,2,5,5,-tetramethyl-3-pyrroline-1-oxyl-3-carboxylic acid ester) —ATP^48) added and the free spin-labeled nucleotide (SL-ANP) observed in the experiment. Hyperbolic curve fitting of the results was performed using GraphPad Prism 7 to determine maximum binding and apparent affinity for the spin-labeled nucleotide. The equation used for the fitting the curves was […], where P1 corresponds to the maximum binding of SL-ANP (moles of SL-ANP bound per mole P-gp), and P2 equals the apparent dissociation constant for SL-ANP. To quantify the amount of free SL-ANP, standard curves were established where the signal amplitude of the high field signal of the ESR spectra of free SL-ANP in the absence of protein was correlated to the concentration of SL-ANP added. All ESR measurements were performed using a Bruker EMX 6/1 ESR spectrophotometer operating in X-band mode and equipped with a high sensitivity cavity. Spectra were acquired at a microwave frequency of 9.33 GHz, microwave power of 12.63 mW, 100 kHz modulation frequency and a resolution of 1024 points. The centerfield of the scan was at 3325 G and an area of 100 G was scanned. The peak to peak modulation amplitude was 1G and the time constant was set to 10.240 ms. The conversion time was 163.84 ms, resulting in a total time sweep of 167.772 s. The signal gain was adjusted for the SL-ATP concentrations in the different experiments.

[3] = target: T3, Cysteineless Mouse MDR3 P-glycoprotein (Mus musculus, UniProt P21447, C1070A/C1121A/C1223A/C133A/C427A/C638A/C669A/C713A/C952A); experiment: ATPase activity assay (basal and verapamil-stimulated), purified P-gp in mixed micelles; assay type: biochemical; conditions: for Effect on stimulated ATPase / Stimulated ATPase: in the presence of verapamil; for Stimulated ATPase / Basal ATPase: ± standard deviation; for Effect on basal ATPase / Stimulation of basal ATPase / Basal ATPase: no added transport substrate
T3 construct: made in house; host or cells: Pichia pastoris
T3 sequence (P21447 whole entry C133A/C427A/C638A/C669A/C713A/C952A/C1070A/C1121A/C1223A): as above
Description: Evaluation of mode of inhibition of P-glycoprotein by Group 1 and Group 2 variants of compound 29. To assess the mode of inhibition of P-gp by the novel variants of P-gp inhibitor 29, ATP hydrolysis by P-gp was evaluated in the presence or absence of the variants. […] Murine P-gp (MDR3) expressed in Pichia pastoris that had all naturally occurring cysteines replaced with alanine, was used^45, 46. It is widely assumed that the ATP hydrolytic rate of P-gp is stimulated in the presence of transport substrates when compared to ATP hydrolysis in the absence of transport substrates. Assays comparing these rates can therefore be useful not only in identifying inhibitors of P-gp catalyzed ATP hydrolysis, but also to potentially infer whether a compound might be a transport substrate if basal ATPase rates are stimulated by the addition of a compound.
P-glycoprotein Purification. Cysteine-less MDR3 and the human normal MDR1 P-glycoprotein was recombinantly expressed in the yeast Pichia pastoris essentially as in^45, 46 and used for assaying ATP hydrolysis and ATP binding to the protein in the presence of the 29-variants. Purification of the protein was performed as described^49 with small modifications resulting in highly enriched P-gp in mixed micelles containing dodecyl maltoside (DDM) and lysophosphatidyl choline^26.
ATPase Activity Assays. ATP hydrolysis activity was measured using a coupled enzyme assay^72 as modified in reference^26.

SMILES	Calcein accumulation in DU145TXR (in words) [1]	Effect on SL-ANP binding [2]	Stimulated ATPase [3]	Effect on basal ATPase [3]	Stimulation of basal ATPase [3] [fold]	Basal ATPase [3]	Maximum ATP binding [2] [mol SL-ANP bound/mol P-gp]	other results
COc1cc(NC(=O)CSCC(=O)Nc2cc(-c3cc(C)c(C)cc3C)nn2-c2ccccc2)cc(OC)c1OC [29-238, N-[1-phenyl-3-(2,4,5-trimethylphenyl)-1H-pyrazol-5-yl]-2-({[(3,4,5-trimethoxyphenyl)carbamoyl]methyl}sulfanyl)acetamide]	remained strongest	yes	194 ± 22 % of DMSO	stimulator	~10	1143 ± 46 % of DMSO	–	Maximum ATP binding ([2]; listed as 238): about 1 mol SL-ANP bound/mol P-gp; Maximum ATP binding ([2]; listed as SMU29-238): 1.2 ± 0.1 mol SL-ANP bound/mol P-gp; Effect on stimulated ATPase ([3]; listed as 238): about two-fold; Effect on stimulated ATPase ([3]; listed as SMU29-238): stimulator
Cc1cc(C)c(-c2cc(NC(=O)CSCC(=O)Nc3ccc4ncsc4c3)n(-c3ccccc3)n2)cc1C [29-255, 2-({[(1,3-benzothiazol-6-yl)carbamoyl]methyl}sulfanyl)-N-[1-phenyl-3-(2,4,5 trimethylphenyl)-1H-pyrazol-5-yl]acetamide]	remained strongest	no	123 ± 15 % of DMSO	stimulator	~3	355 ± 7 % of DMSO	1.9 ± 0.1	Effect on stimulated ATPase ([3]; listed as SMU29-255): none
Cc1cc(C)c(-c2cc(NC(=O)CSCC(=O)NC34CC5CC(CC(C5)C3)C4)n(-c3ccccc3)n2)cc1C [29-278, 2-({[(adamantan-1-yl)carbamoyl]methyl}sulfanyl)-N-[1-phenyl-3-(2,4,5-trimethylphenyl)-1H-pyrazol-5-yl]acetamide]	increased calcein accumulation	yes	41 ± 7 % of DMSO	–	–	78 ± 4 % of DMSO	–	Calcein accumulation in DU145TXR (in words) ([1]; listed as 278): comparable to 29; Maximum ATP binding ([2]; listed as 278): about 1 mol SL-ANP bound/mol P-gp; Maximum ATP binding ([2]; listed as SMU29-278): 1.3 ± 0.1 mol SL-ANP bound/mol P-gp; Effect on stimulated ATPase ([3]; listed as 278): inhibited verapamil-stimulated ATPase activity; Effect on stimulated ATPase ([3]; listed as SMU29-278): inhibitor; Effect on basal ATPase ([3]; listed as 278): inhibited; Effect on basal ATPase ([3]; listed as SMU29-278): inhibitor
Cc1cc(C)c(-c2cc(NC(=O)CSCC(=O)NC(c3ccccc3)c3ccccc3)n(-c3ccccc3)n2)cc1C [29-280, N-(diphenylmethyl)-2-[({[1-phenyl-3-(2,4,5-trimethylphenyl)-1H-pyrazol-5-yl]carbamoyl)methyl}sulfanyl]acetamide]	comparable to 29	marginally	116 ± 4 % of DMSO	–	–	148 ± 4 % of DMSO	1.6 ± 0.1	Effect on stimulated ATPase ([3]; listed as 280): only a slight stimulation; Effect on stimulated ATPase ([3]; listed as SMU29-280): stimulator; Effect on basal ATPase ([3]; listed as SMU29-280): stimulator
Cc1cc(C)c(-c2cc(NC(=O)CSCC(=O)NCc3ccc(F)cc3)n(-c3ccccc3)n2)cc1C [29-286]	comparable to 29	no	98 ± 2 % of DMSO	–	–	143 ± 32 % of DMSO	1.9 ± 0.1	Effect on stimulated ATPase ([3]; listed as 286): no significant effect; also recorded: little effect; Effect on stimulated ATPase ([3]; listed as SMU29-286): none; Effect on basal ATPase ([3]; listed as 286): only marginally or with no statistical significance; Effect on basal ATPase ([3]; listed as SMU29-286): none
Cc1cc(C)c(-c2cc(NC(=O)CSc3nnc4c(n3)[nH]c3ccccc34)n(-c3ccccc3)n2)cc1C [29-541, 2-((5H-[1,2,4]triazino[5,6-b]indol-3-yl)thio)-N-(1-phenyl-3-(2,4,5-trimethylphenyl)-1H-pyrazol-5-yl)acetamide]	–	no	68 ± 7 % of DMSO	–	–	101 ± 12 % of DMSO	1.8 ± 0.1	Calcein accumulation in DU145TXR (in words) ([1]; listed as 541): exceeded 29 significantly; also recorded: exceeded 29 upon preincubation; Effect on stimulated ATPase ([3]; listed as 541): inhibited activity similar to parental compound 29; also recorded: inhibited verapamil-stimulated ATPase activity; Effect on stimulated ATPase ([3]; listed as SMU29-541): inhibitor; Effect on basal ATPase ([3]; listed as 541): did not significantly affect; also recorded: did not activate; Effect on basal ATPase ([3]; listed as SMU29-541): none

From patent US20210134398A1, “Combinatorial Chemistry Computational System and Enhanced Selection Method” (Southern Methodist University, priority 2019, published 2021)
